Experimental data from US11986526B2, “Liquid protein formulations containing 4-ethyl-4-methylmorpholinium methylcarbonate (EMMC)” (Eagle Biologics, Inc., priority 2013, dated 2024).
Where “and” joins values, the source holds several entries; their conditions need not be identical. Equal values may be shown once.

Columns and labels:
[1] = test system: aqueous solutions of TYSABRI®; test: Viscosity of concentrated aqueous solutions of TYSABRI with excipients (mVROC microfluidic viscometer); type: physicochemical; details: for Viscosity: 25° C., pH 7
Description: (§1) All viscosities of well-mixed aqueous mAb solutions were measured using either a mVROC microfluidic viscometer (RheoSense) or a DV2T cone and plate viscometer (Brookfield; “C & P”) after a 5 minute equilibration at 25 °C (unless otherwise indicated). The mVROC viscometer was equipped with an “A” or “B” chip, each manufactured with a 50 micron channel. Typically, 0.10 mL of protein solution was back-loaded into a gastight microlab instrument syringe (Hamilton; 100 μL), affixed to the chip, and measured at multiple flow rates, approximately 20%, 40%, and 60% of the maximum pressure for each chip. […] An average absolute viscosity and standard deviation was then calculated from at least these three measurements. The C & P viscometer was equipped with a CPE40 or CPE52 spindle (cone angle of 0.8° and 3.0°, respectively) and 0.50 mL samples were measured at multiple shear rates between 2 and 400 s^−1. […] An extrapolated zero-shear viscosity was then determined from a plot of dynamic viscosity versus shear rate for the samples measured on a DV2T cone and plate viscometer. The extrapolated zero-shear viscosities reported are the average and standard deviation of at least three measurements.
The dried protein cakes, containing protein and buffer salts or viscosity-reducing ionic liquid, were reconstituted to a final volume of approximately 0.10-1.30 mL. […] Then, an appropriate amount of viscosity-reducing ionic liquid solution (pH 7.0) was added to each aliquot such that upon reconstitution with water, the final excipient concentration was 0.1-0.5 M. The protein solutions were then freeze-dried. The dried protein cakes, containing protein and viscosity-reducing ionic liquid (and a negligible amount of buffer salts) were reconstituted to a final volume of approximately 0.1 mL and viscosity-reducing ionic liquid concentration as indicated in the tables below. The final concentration of mAb in solution was determined by light absorbance at 280 nm using an experimentally determined extinction coefficient of 1.7 L/g·cm and viscosities reported were measured on a RheoSense mVROC microfluidic viscometer.
(§2) Viscosities were measured using a RheoSense mVROC microfluidic viscometer equipped with an “A” or “B” chip.

[2] = test system: aqueous solutions of HERCEPTIN®; test: Viscosity of concentrated aqueous solutions of HERCEPTIN with ionic liquids (mVROC microfluidic viscometer); type: physicochemical; details: for Viscosity: 25° C., pH 7
Excerpt: The protein was formulated either with phosphate buffer or with various viscosity-reducing ionic liquids at concentrations in the table listed below.

[3] = test system: aqueous solutions of biosimilar AVASTIN®; test: Viscosity of concentrated aqueous solutions of biosimilar AVASTIN with ionic liquids (mVROC microfluidic viscometer); type: physicochemical; details: 25° C., pH 7
Description: as §1
(§3) First, Polysorbate 20 was removed using DETERGENT-OUT® TWEEN Medi Columns (G-Biosciences). […] The dried protein cakes, containing protein and buffer salts or viscosity-reducing ionic liquid, were reconstituted to a final volume of approximately 0.10-1.30 mL. […] Then, an appropriate amount of viscosity-reducing ionic liquid solution (pH 7.0) was added to each aliquot such that upon reconstitution with water, the final excipient concentration was 0.1-0.5 M. The protein solutions were then freeze-dried. The dried protein cakes, containing protein and viscosity-reducing ionic liquid (and a negligible amount of buffer salts) were reconstituted to a final volume of approximately 0.1 mL and viscosity-reducing ionic liquid concentration as indicated in the tables below. The final concentration of mAb in solution was determined by light absorbance at 280 nm using an experimentally determined extinction coefficient of 1.7 L/g·cm and viscosities reported were measured on a RheoSense mVROC microfluidic viscometer.

Sprague-Dawley rats = test: Subcutaneous injection toxicity and irritation study (Draize evaluation scores, microscopic examination of injection sites); type: in vivo, rat
Description: Clinical observations were recorded for any pharmaco-toxicological signs at pre-dose, immediately post-dose, at 1 and 4 hours (±15 minutes) post-dose, and daily thereafter. Irritation, if any, at injection sites was scored using the Draize evaluation scores pre-dose, immediately post-dose, at 1 hour (±15 minutes) post dose, and prior to sacrifice.

[4] = test system: aqueous solutions of biosimilar RITUXAN®; test: Viscosity of concentrated aqueous solutions of biosimilar RITUXAN with BIM (mVROC microfluidic viscometer); type: physicochemical; details: 25° C., pH 7
[5] = test system: aqueous solutions of biosimilar ERBITUX®; test: Viscosity of concentrated aqueous solutions of biosimilar ERBITUX at various BIM concentrations (mVROC microfluidic viscometer); type: physicochemical; details: for Viscosity: 25° C., pH 7
Description: All viscosities of well-mixed aqueous mAb solutions were measured using either a mVROC microfluidic viscometer (RheoSense) or a DV2T cone and plate viscometer (Brookfield; “C & P”) after a 5 minute equilibration at 25 °C (unless otherwise indicated). The mVROC viscometer was equipped with an “A” or “B” chip, each manufactured with a 50 micron channel. Typically, 0.10 mL of protein solution was back-loaded into a gastight microlab instrument syringe (Hamilton; 100 μL), affixed to the chip, and measured at multiple flow rates, approximately 20%, 40%, and 60% of the maximum pressure for each chip. […] An average absolute viscosity and standard deviation was then calculated from at least these three measurements. The C & P viscometer was equipped with a CPE40 or CPE52 spindle (cone angle of 0.8° and 3.0°, respectively) and 0.50 mL samples were measured at multiple shear rates between 2 and 400 s^−1. Specifically, samples were measured for 30 seconds each at 22.58, 24.38, 26.25, 28.13, 30, 31.88, 45, 67.5, 90, 112.5, 135, 157.5, 180, 202.5, 247, 270, 292.5, 315, 337.5, 360, 382, 400 s^−1, starting at a shear rate that gave at least 10% torque, and continuing until instrument torque reached 100%. An extrapolated zero-shear viscosity was then determined from a plot of dynamic viscosity versus shear rate for the samples measured on a DV2T cone and plate viscometer. The extrapolated zero-shear viscosities reported are the average and standard deviation of at least three measurements.
as §3, §2

[6] = test system: aqueous solutions of REMICADE®; test: Viscosity of concentrated aqueous solutions of REMICADE with and without BIM (mVROC microfluidic viscometer); type: physicochemical
Description: A commercially-obtained biosimilar AVASTIN® containing pharmaceutical excipients (Polysorbate 20, phosphate and citrate buffers, mannitol, and NaCl) was purified. […] For samples containing 4-ethyl-4-methylmorpholinium methyl carbonate (EMMC), protein was thoroughly buffer exchanged into 2 mM PB (pH 7.0). For samples buffer exchanged into 20 mM PB (PB control samples) or 20 mM viscosity-reducing ionic liquid, the collected protein solution was freeze-dried. […] Samples buffer exchanged into 2 mM PB were first aliquoted.

[7] = test system: aqueous solutions of VECTIBIX®; test: Viscosity of concentrated aqueous solutions of VECTIBIX with and without BIM (mVROC microfluidic viscometer); type: physicochemical; details: 0.50M BIM, 25° C., pH 7
[8] = test system: respiratory syncytial virus infection; details: two Phase III clinical trials, pediatric population; cited from earlier work
[9] = studies evaluating long-term clinical outcomes; cited from earlier work
[10] = [IL] 0.5 M, [Protein] 230 mg/mL

4-ethyl-4-methylmorpholinium methylcarbonate [EMMC]
Viscosity reduction ([1]; 0.10 M EMMC): up to 7 fold
Viscosity ([1]; [IL] 0.1 M, [Protein] 232 mg/mL): 24.7 ± 0.3 cP
Viscosity reduction ([2]; 0.10 M EMMC): ~3 fold
Viscosity ([2]; [IL] 0.10 M, [Protein] 253 mg/mL): 60.2 ± 4.3 cP
Viscosity ([3]; [IL] 0.4 M, [Protein] 217 mg/mL): 38.7 ± 0.3 cP

Cl.N=C(N)NCCC[C@H](N)C(=O)O [Arg HCl, Arginine-HCl, reference compound]
Viscosity ([1]; [IL] 0.25 M, [Protein] 228 mg/mL): 37 ± 0.1 cP

CCCCn1cc[n+](CCCCS(=O)(=O)[O-])c1 [BIM, 4-(3-butyl-1-imidazolio)-1-butane sulfonate]
Viscosity ([1]; [IL] 0.4 M, [Protein] 234 mg/mL): 43.6 ± 1.1 cP
Observed consequences of injections compared with saline (Sprague-Dawley rats; 0.5 mL of 0.25 M BIM subcutaneously vs phosphate-buffered saline, throughout the study): macroscopically similar
Irritation at injection sites (Sprague-Dawley rats; 0.5 mL of 0.25 M BIM subcutaneously, 1-3 daily injections): no irritation to slight irritation
Edema scores (Draize) at injection sites (Sprague-Dawley rats; 0.5 mL of 0.25 M BIM subcutaneously, 1-3 daily injections, various time points): 0-2
Microscopic examination of injection sites (Sprague-Dawley rats; 0.5 mL of 0.25 M BIM subcutaneously, no longer evident by day 4): very minor, clinically insignificant, irritative effect
Viscosity ([4]; 0.40M BIM, [Protein] 191 ± 2 mg/mL): 43.9 ± 1.6 cP
Viscosity ([4]; 0.40M BIM, [Protein] 203 ± 4 mg/mL): 65.4 ± 0.4 cP
Viscosity ([4]; 0.40M BIM, [Protein] 213 ± 4 mg/mL): 75.4 ± 1.0 cP
Viscosity ([4]; 0.50M BIM, [Protein] 213 ± 4 mg/mL): 83.9 ± 0.8 cP
Viscosity ([2]; [IL] 0.40 M, [Protein] 223 mg/mL): 43.8 ± 0.4 cP
Viscosity ([5]; [BIM] 0.4 M, [biosimilar ERBITUX ®] 270 mg/mL): 86.7 ± 2.1 cP
Viscosity ([5]; [BIM] 0.5 M, [biosimilar ERBITUX ®] 257 mg/mL): 75.0 ± 0.3 cP
Viscosity ([5]; [BIM] 0.75 M, [biosimilar ERBITUX ®] 263 mg/mL): 148 ± 2 cP
Viscosity ([5]; [BIM] 1.0 M, [biosimilar ERBITUX ®] 279 mg/mL): 145 ± 2 cP
Viscosity ([5]; [BIM] […], [biosimilar ERBITUX ®] 267 mg/mL): 347 ± 5 cP
Dependence of viscosity-lowering effect on BIM concentration ([5]; various concentrations of BIM, 0.3-[…]): dose dependent manner up to about 0.50 M
Viscosity ([6]; 0.50M BIM, REMICADE ® 222 ± 6 mg/mL, 25° C., pH 7): 71.2 ± 2.9 cP
Viscosity reduction ([6]; 0.50 M BIM, maximum over the proteins examined (REMICADE and VECTIBIX)): up to 22 fold
Viscosity ([7]; VECTIBIX ® 233 ± 4 mg/mL): 51.1 ± 3.7 cP
Viscosity ([7]; VECTIBIX ® 291 ± 3 mg/mL): 170 ± 2 cP
Viscosity ([3]; [IL] 0.2 M, [Protein] 215 mg/mL): 61.8 ± 0.3 cP
Viscosity ([3]; [IL] 0.4 M, [Protein] 215 mg/mL): 47.3 ± 2.3 cP
Viscosity ([3]; [IL] 0.5 M, [Protein] 215 mg/mL): 41.9 ± 0.8 cP

CCCCn1cc[n+](C)c1.CS(=O)(=O)[O-] [BMI Mes, 1-butyl-3-methylimidazolium methanesulfonate]
Viscosity ([1]; [IL] 0.4 M, [Protein] 232 mg/mL): 35.2 ± 5.0 cP
Viscosity ([2]; [IL] 0.40 M, [Protein] 227 mg/mL): 47.8 ± 1.0 cP
Viscosity ([3]; [IL] 0.4 M, [Protein] 214 mg/mL): 36.3 ± 0.2 cP
Viscosity ([3]; [IL] 0.4 M, [Protein] 229 mg/mL): 69.2 ± 5.2 cP
Viscosity ([3]; [IL] 0.5 M, [Protein] 221 mg/mL): 46.5 ± 1.7 cP
Viscosity [3, 10]: 82.0 ± 3.0 cP

CCCC[N+]1(C)CCCC1.[Cl-] [BMP Chloride, 1-butyl-1-methylpyrrolidinium chloride]
Viscosity ([1]; [IL] 0.4 M, [Protein] 249 mg/mL): 42.7 ± 1.9 cP
Viscosity ([2]; [IL] 0.40 M, [Protein] 210 mg/mL): 55.6 ± 2.0 cP
Viscosity ([2]; [IL] 0.40 M, [Protein] 244 mg/mL): 99.2 ± 2.2 cP
Viscosity ([3]; [IL] 0.4 M, [Protein] 227 mg/mL): 63.0 ± 8.4 cP
Viscosity [3, 10]: 60.8 ± 0.1 cP

palivizumab: humanized mAb against an epitope in the A antigenic site of the F protein of respiratory syncytial virus
Reduction of the risk of hospitalization due to respiratory syncytial virus infection [8]: 55% and 45%

vedolizumab: mAb being developed by Millennium Pharmaceuticals for ulcerative colitis and Crohn's disease
Patients achieving clinical remission [9]: ~60%
